# According to patent publication US6008225A, “Derivatives of antibiotic GE2270 factors C2a, D2 and E” (BioSearch Italia, S.p.A., priority 1996, dated 1999):
# Experiments:
# [1] = tested on: Clostridium perfringens ISS30543; type: cell-based; settings: Clostridium perfringens ISS30543 (code 290); anaerobe, 48 h; 0.01% BSA; inocula about 10^5 (1-4), about 5×10^5 cfu/ml (5, 6)
# [2] = tested on: Haemophilus influenzae type b ATCC19418; experiment: MIC by microbroth dilution, Haemophilus influenzae; type: cell-based; settings: Haemophilus influenzae type b ATCC19418 (code 970); 5% CO2, 48 h; 0.01% BSA; inocula about 10^4 (1-4), about 5×10^5 cfu/ml (5, 6)
# [3] = tested on: Staph. aureus Tour; experiment: MIC by microbroth dilution, Staph. aureus Tour; type: cell-based, Staphylococcus aureus; settings: Staph. aureus Tour (code 165), 0.01% BSA, read 18-24 h
# [4] = tested on: Bacteroides fragilis ATCC 25285; experiment: MIC by microbroth dilution, Bacteroides fragilis; type: cell-based; settings: Bacteroides fragilis ATCC 25285 (code 1011); anaerobe, 48 h; 0.01% BSA; inocula about 10^5 (1-4), about 5×10^5 cfu/ml (5, 6)
# [5] = tested on: Staph. haemolyticus clin. is.; experiment: MIC by microbroth dilution, Staph. haemolyticus; type: cell-based, Staphylococcus haemolyticus; settings: Staph. haemolyticus clin. is. (code 602); 0.01% BSA; inocula about 10^4 (1-4), about 5×10^5 cfu/ml (5, 6); 18-24 h
# [6] = tested on: Proteus vulgaris X19H ATCC881; experiment: MIC by microbroth dilution, Proteus vulgaris; type: cell-based; settings: Proteus vulgaris X19H ATCC881 (code 79); 0.01% BSA; inocula about 10^4 (1-4), about 5×10^5 cfu/ml (5, 6); 18-24 h
# [7] = tested on: Propionibacterium acnes ATCC6919; experiment: MIC by microbroth dilution, Propionibacterium acnes; type: cell-based; settings: Propionibacterium acnes ATCC6919 (code 1014); anaerobe, 48 h; 0.01% BSA; inocula about 10^5 (1-4), about 5×10^5 cfu/ml (5, 6)
# [8] = tested on: Strep. pneumoniae UC41; experiment: MIC by microbroth dilution, Strep. pneumoniae; type: cell-based, Streptococcus pneumoniae; settings: Strep. pneumoniae UC41 (code 44); Todd Hewitt broth; 0.01% BSA; inocula about 10^4 (1-4), about 5×10^5 cfu/ml (5, 6); 18-24 h
# [9] = tested on: Klebsiella pneumoniae ISM; experiment: MIC by microbroth dilution, Klebsiella pneumoniae; type: cell-based; settings: Klebsiella pneumoniae ISM (code 142); 0.01% BSA; inocula about 10^4 (1-4), about 5×10^5 cfu/ml (6); 18-24 h
# [10] = tested on: Strep. pyogenes C203; experiment: MIC by microbroth dilution, Strep. pyogenes; type: cell-based, Streptococcus pyogenes; settings: Strep. pyogenes C203 (code 49); Todd Hewitt broth; 0.01% BSA; inocula about 10^4 (1-4), about 5×10^5 cfu/ml (5, 6); 18-24 h
# [11] = tested on: Pseudomonas aeruginosa ATCC10145; experiment: MIC by microbroth dilution, Pseudomonas aeruginosa; type: cell-based; settings: Pseudomonas aeruginosa ATCC10145 (code 4); 0.01% BSA; inocula about 10^4 (1-4), about 5×10^5 cfu/ml (5, 6); 18-24 h
# [12] = tested on: Neisseria gonorrhoeae ISM 68/126; experiment: MIC by microbroth dilution, Neisseria gonorrhoeae; type: cell-based; settings: Neisseria gonorrhoeae ISM 68/126 (code 997); 5% CO2, 48 h; 0.01% BSA; inocula about 10^4 (1-4), about 5×10^5 cfu/ml (5, 6)
# [13] = tested on: Enterococcus faecalis ATCC 6919; experiment: MIC by microbroth dilution, Enterococcus faecalis; type: cell-based; settings: Enterococcus faecalis ATCC 6919 (code 149); 0.01% BSA; inocula about 10^4 (1-4), about 5×10^5 cfu/ml (5, 6); 18-24 h
# [14] = tested on: Escherichia coli SKF 12140; experiment: MIC by microbroth dilution, Escherichia coli; type: cell-based; settings: Escherichia coli SKF 12140 (code 47); 0.01% BSA; inocula about 10^4 (1-4), about 5×10^5 cfu/ml (5, 6); 18-24 h
# [15] = tested on: Staph. aureus Smith; experiment: MIC by microbroth dilution, Staph. aureus Smith; type: cell-based, Staphylococcus aureus; settings: Staph. aureus Smith (code 819); 0.01% BSA; inocula about 10^4 (1-4), about 5×10^5 cfu/ml (5, 6); 18-24 h
# [16] = tested on: Staph. epidermidis ATCC 12228; experiment: MIC by microbroth dilution, Staph. epidermidis; type: cell-based, Staphylococcus epidermidis; settings: Staph. epidermidis ATCC 12228 (code 147); 0.01% BSA; inocula about 10^4 (1-4), about 5×10^5 cfu/ml (5, 6); 18-24 h
# [17] = inocula about 10^4 cfu/ml (compounds 1-4), about 5×10^5 cfu/ml (5, 6)
Structure (SMILES),MIC of the compounds [1] [µg/mL],MIC of the compounds [2] [µg/mL],MIC of the compounds ([3]; 10^6 cfu/ml) [µg/mL],MIC of the compounds ([3]; 30% b.s.) [µg/mL],"MIC of the compounds [3, 17] [µg/mL]",MIC of the compounds [4] [µg/mL],MIC of the compounds [5] [µg/mL],MIC of the compounds [6] [µg/mL],MIC of the compounds [7] [µg/mL],MIC of the compounds [8] [µg/mL],MIC of the compounds [9] [µg/mL],MIC of the compounds [10] [µg/mL],MIC of the compounds [11] [µg/mL],MIC of the compounds [12] [µg/mL],MIC of the compounds [13] [µg/mL],MIC of the compounds [14] [µg/mL],MIC of the compounds [15] [µg/mL],MIC of the compounds [16] [µg/mL]
CCN(CC)Cc1sc2nc1C(=O)NCC(=O)NC(C(O)c1ccccc1)c1nc(cs1)-c1nc(cs1)-c1nc(-c3nc(C4=NC(C(=O)N5CCCC5C(N)=O)CO4)cs3)ccc1-c1nc(cs1)C(=O)NC(CC(=O)NC)c1nc(c(C)s1)C(=O)NC2C(C)C (stereo not drawn) [Compound 1],0.13,> 128,0.25,0.5,0.13,64,0.13,> 128,0.03,1,> 128,4,> 128,> 128,0.06,> 128,0.13,
CNC(=O)CC1NC(=O)c2csc(n2)-c2ccc(-c3nc(C4=NC(C(=O)N5CCCC5C(N)=O)CO4)cs3)nc2-c2csc(n2)-c2csc(n2)C(C(O)c2ccccc2)NC(=O)CNC(=O)c2nc(sc2CN(C)C)C(C(C)C)NC(=O)c2nc1sc2C (stereo not drawn) [Compound 2],0.06,8,0.13,0.13,0.13,128,0.25,> 128,0.06,0.13,> 128,0.5,> 128,4,0.06,> 128,0.13,0.13
CNC(=O)C[C@@H]1NC(=O)c2csc(n2)-c2ccc(-c3nc(C4=N[C@H](C(=O)N5CCC[C@H]5C(N)=O)CO4)cs3)nc2-c2csc(n2)-c2csc(n2)C(C(O)c2ccccc2)NC(=O)CNC(=O)c2nc(sc2CN(C)CCN(C)C)[C@H](C(C)C)NC(=O)c2nc1sc2C (stereo partly drawn) [Compound 3],4,> 128,4,1,1,> 128,8,> 128,0.5,1,> 128,2,> 128,> 128,1,> 128,1,8
CCSCc1sc2nc1C(=O)NCC(=O)NC(C(O)c1ccccc1)c1nc(cs1)-c1nc(cs1)-c1nc(-c3nc(C4=N[C@H](C(=O)N5CCC[C@H]5C(N)=O)CO4)cs3)ccc1-c1nc(cs1)C(=O)N[C@@H](CC(=O)NC)c1nc(c(C)s1)C(=O)N[C@H]2C(C)C (stereo partly drawn) [Compound 4],0.016,> 128,,,0.13,> 128,8,> 128,0.004,0.5,> 128,64,> 128,> 128,0.06,> 128,0.25,4
CCN(CC)CCNC(=O)[C@@H]1CCCN1C(=O)[C@@H]1COC(c2csc(-c3ccc4c(n3)-c3csc(n3)-c3csc(n3)C(C(O)c3ccccc3)NC(=O)CNC(=O)c3nc(sc3CO)[C@H](C(C)C)NC(=O)c3nc(sc3C)[C@H](CC(=O)NC)NC(=O)c3csc-4n3)n2)=N1 (stereo partly drawn) [Compound 5],0.06,8,0.13,0.25,0.06,32,0.13,> 128,0.03,0.13,,0.13,> 128,32,0.06,> 128,0.13,0.13
CCN(CC)CCNC(=O)[C@@H]1CCCN1C(=O)[C@@H]1COC(c2csc(-c3ccc4c(n3)-c3csc(n3)-c3csc(n3)C(C(O)c3ccccc3)NC(=O)CNC(=O)c3nc(sc3CN(C)C)[C@H](C(C)C)NC(=O)c3nc(sc3C)[C@H](CC(=O)NC)NC(=O)c3csc-4n3)n2)=N1 (stereo partly drawn) [Compound 6],0.06,> 128,,,0.13,64,0.5,> 128,16,0.13,> 128,0.13,> 128,16,0.13,> 128,0.13,0.5
